The conditions of data set [1]: humans, oral and/or intravenous 10, 25, 50, 100 mg/kg; cited from earlier work.
A further data set deals with human NK(1) receptor (Homo sapiens, UniProt P25103). The following applies: cited from earlier work.
Data set [2] relates to isolated guinea-pig mesenteric artery. As to the kind of experiment: Relaxation of isolated mesenteric artery, pressure myograph (Ex 4). The following applies: for relaxation / artery diameter: endothelium present (adenosine, AL: with or without); for relaxation of isolated intact mesenteric artery: luminal or abluminal, 0.001 to 1 mM. The procedure:
Male guinea pigs (250-300 g) were anesthetised and placed in a cradle and the abdomen opened. Second order mesenteric artery branches were isolated and mounted in a pressure myograph (see FIG. 4) under constant pressure of 60 mmHg and perfusion (luminal flow) of 100 uL/min with Krebs-Henseleit buffer (37° C.). Artery diameter was continuously measured using videomicroscopy (see FIG. 4). For the relaxation/vasodilation experiments arteries were equilibrated and then constricted with 10^−8 M arginine vasopressin (AVP). Adenosine, lidocaine or adenosine-lidocaine together were administered 2) luminally and 2) abluminally and concentration curves were obtained. Stock solutions of adenosine and lidocaine alone or adenosine-lidocaine combined were made in deionized water to 20 mM. A range of volumes were pipetted to provide contact concentrations with the vessel lumen or outer wall that ranged from 0.001 to 1 mM. At the end of experiments, arteries were dilated using calcium-free solution to obtain 100% relaxation. A number of arteries were denuded by introducing 5 ml air into the lumen with flow rate 1000 μl/min. The air outflow was then clamped until the intraluminal pressure reached 70 mmHg, flow rate was reduced to 2 μl/min and the vessel remained pressurized for 10 minutes

human NK(1) receptor, sequence (P25103 whole entry): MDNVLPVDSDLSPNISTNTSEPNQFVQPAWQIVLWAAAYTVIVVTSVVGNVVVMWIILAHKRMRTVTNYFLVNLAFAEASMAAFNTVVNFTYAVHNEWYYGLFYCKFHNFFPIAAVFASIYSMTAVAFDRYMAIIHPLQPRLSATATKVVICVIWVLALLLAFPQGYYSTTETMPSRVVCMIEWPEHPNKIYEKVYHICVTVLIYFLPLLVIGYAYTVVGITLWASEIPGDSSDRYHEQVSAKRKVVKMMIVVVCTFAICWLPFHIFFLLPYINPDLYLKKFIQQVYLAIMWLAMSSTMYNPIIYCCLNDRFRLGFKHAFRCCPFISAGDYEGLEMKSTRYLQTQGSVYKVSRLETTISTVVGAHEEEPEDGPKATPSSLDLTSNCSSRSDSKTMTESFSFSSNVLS

Take `NC(=O)c1ncn([C@@H]2O[C@H](CO)[C@@H](O)[C@H]2O)c1N` [Acadesine, 5-amino-4-imidazole carboxamide ribonucleoside]: in data set [1], the safety entry is given as “safe in humans”.

In the case of `Cc1cccc(C)c1NC(=O)CN1CCN(C2CCN(C(=O)c3cc(C(F)(F)F)cc(C(F)(F)F)c3)C(Cc3ccccc3)C2)CC1` (centres unmarked) [R116301], at human NK(1) receptor, the Ki was 0.45 nM; the “selectivity toward NK(2) and NK(3) receptors” value is listed as “over 200 fold”.

As for `Nc1ncnc2c1ncn2[C@@H]1O[C@H](CO)[C@@H](O)[C@H]1O` [adenosine], in data set [2], the “relaxation / artery diameter” value is recorded as “relaxed the mesenteric artery in a dose dependent manner” and the “relaxation of isolated intact mesenteric artery” value was “increased relaxation”.

As for `CCN(CC)CC(=O)Nc1c(C)cccc1C` [lidocaine], the relaxation result in data set [2] (endothelium absent) was “relaxed the artery”. Also, in data set [2], the “relaxation / artery diameter” value is on record as “did not significantly change mesenteric artery diameter” and the “relaxation of isolated intact mesenteric artery” value is reported as “failed to produce relaxation”.

The values above are taken from patent US20160166598A1, “A METHOD FOR TREATING INFECTION, SEPSIS AND INJURY” (priority 2013, published 2016).
